We go through six compounds from patent US11472831B2, “Isotopically labeled bile acid derivatives” (Intercept Pharmaceuticals, Inc., priority 2017, dated 2022).

A short description of data set [1]: Clinical study Part 1, Regimen B: IV plasma PK of 100 μg microtracer dose of [14C]-OCA. The format is in vivo, human. On the procedure: The objectives of this study were to determine the absolute bioavailability of OCA, and evaluate the absorption, distribution, metabolism, and excretion of OCA in healthy male subjects. […] Mean plasma concentrations of total radioactivity are shown in FIG. 12, and of [^14C]-OCA in FIG. 13. The highest concentration of radioactivity in plasma was measured after completion of the IV dose, and the concentrations of OCA declined rapidly within 4 hours. After the initial decline, a low-level, prolonged profile of OCA and total radioactivity was observed, as expected due to enterohepatic recirculation.

A short description of data set [2]: Clinical study Part 2: mass balance recovery of radioactivity in urine and feces after 25 mg oral [14C]-OCA. The format is in vivo, human. As to the method:
Part 2 also evaluated the extent of distribution of total radioactivity into blood cells, and identified metabolites accounting for more than 10% of circulating total radioactivity. The mean cumulative recovery (cumulative % Ae (Amount excreted)) of radioactivity in the urine and feces of subjects receiving oral [^14C]-OCA is shown in FIG. 18. […] The majority of drug-related material in the feces was recovered within 552 hours of dosing with investigational product. In Part 2 (Mass Balance), the mass balance data confirmed that the primary elimination route of OCA is through the feces. A mean of 87% of administered radioactivity was recovered from the feces over the entire collection period, and a minor percentage (<3%) was recovered from the urine.

For data set [3] the following is noted: rat; single oral administration of [14C] OCA.
Text: Preclinical mass balance and radiolabeled single dose PK studies in the rat have examined biliary, urinary, and fecal excretion of OCA and its metabolites.
Data set [4] can be described thus: Clinical study Part 1, Regimen A: oral plasma PK and absolute bioavailability of 25 mg OCA tablet. The format is in vivo, human. On the procedure:
The objectives of this study were to determine the absolute bioavailability of OCA, and evaluate the absorption, distribution, metabolism, and excretion of OCA in healthy male subjects. In addition, the oral pharmacokinetics (PK) of OCA and carbon-14 ([^14C]-OCA, and intravenous (IV) PK of [^14C]-OCA were evaluated.
The PK objectives of Part 1 were to determine the absolute bioavailability of OCA, to define the intravenous (IV) PK of a microtracer dose of [14C] OCA, and to evaluate the oral PK of OCA. In Part 1, subjects were administered the oral dose (Regimen A: 25 mg OCA tablet), followed by the IV microtracer dose (Regimen B: 100 μg [14C]-OCA) 1 hour 45 minutes after the oral dose administration. The 15 minute IV infusion ended at the estimated tmax for the oral dose (2 hours).
To evaluate the oral PK, plasma concentrations of OCA and its conjugates were measured following an oral dose (Regimen A: 25 mg OCA). OCA was rapidly absorbed; the median tmax was 0.5 hrs. Following Cmax, OCA concentration declined rapidly within 4 hours, consistent with the IV profile of OCA. Subsequent OCA concentrations remained, on average, less than 10% of Cmax up to 72 hours post-dose. A prolonged profile of OCA was observed over the course of 72 hours (FIG. 4). This low level persistence of parent OCA is most likely due to deconjugation of glyco-OCA and tauro-OCA by commensal bacteria in the ileum and colon, followed by reabsorption of OCA.
Mean (SD) plasma concentrations over time of total OCA (the sum of OCA, glyco-OCA, and tauro-OCA) are presented in FIG. 15 (Note: Total OCA calculated as sum of OCA, glyco-OCA, and tauro-OCA concentrations at each time point, glyco-OCA, and tauro-OCA concentrations at each time point expressed as mass equivalents of OCA). Consistent with the [^14C]-OCA results, the maximum exposure of total OCA occurred after a meal, consistent with gallbladder release and enterohepatic recirculation, leading to exposure levels being observed up to 72 hours post-dose. Based on overall exposure of total OCA (AUC0-t), glyco-OCA and tauro-OCA are the primary components of exposure, with minimal contribution (less than 10%) from the parent (OCA).
Absolute bioavailability was determined by the ratio of dose normalized AUC for oral dose/dose normalized AUC for IV dose. […] This relatively low value for bioavailability is consistent with the efficient uptake typical of bile acids into the liver, the primary site of action of OCA. PK results were as expected for a bile acid. OCA is rapidly absorbed in the intestine and taken up in the liver, where it is conjugated with glycine and taurine. Glyco-OCA and tauro-OCA were the primary components of exposure, with minimal contribution from the parent (OCA). Enterohepatic recirculation produced an extended profile, with maximum exposure occurring after meals.

Data set [5] can be described thus: Clinical study Part 2, Regimen C: plasma PK and metabolite profile after 25 mg oral dose of [14C]-OCA. The format is in vivo, human. The settings on record: for AUC0-t / Cmax / tmax: plasma; for AUC0-t / Cmax: mean (SD); for circulating OCA metabolites other than glyco-OCA and tauro-OCA: metabolite profiling of radioactivity, mass spectrometry, authentic standards. From the text:
Part 2 also evaluated the extent of distribution of total radioactivity into blood cells, and identified metabolites accounting for more than 10% of circulating total radioactivity. The concentrations of total radioactivity and total OCA in plasma over time are shown in FIG. 16 (Note: Total OCA calculated as sum of OCA, glyco-OCA, and tauro-OCA concentrations at each time point, glyco-OCA, and tauro-OCA concentrations at each time point expressed as mass equivalents of OCA) and FIG. 17 (Note: Total OCA calculated as sum of OCA, glyco-OCA, and tauro-OCA concentrations at each time point, glyco-OCA, and tauro-OCA concentrations at each time point expressed as mass equivalents of OCA. Units for total radioactivity are mass equivalent to OCA (i.e. ng-eq OCA/mL)). […] Two additional OCA metabolites were identified: OCA-3 glucuronide and OCA-24 glucuronide, based on the metabolite profiling of radioactivity, mass spectrometry, and authentic standards for the glucuronide metabolites. […] Following Cmax, OCA concentration declined rapidly within the first 4 hours. The maximum exposure of total OCA, including the conjugates, occurred after meals, consistent with gallbladder release and enterohepatic recirculation, leading to exposure levels being observed over the approximately 4-week sampling period.

For data set [6] the following is noted: statement, no data shown; cited from earlier work.
Data set [7] concerns the target T1, farnesoid X receptor (FXR) (Homo sapiens, UniProt Q96RI1).
T1 sequence (Q96RI1 1-486): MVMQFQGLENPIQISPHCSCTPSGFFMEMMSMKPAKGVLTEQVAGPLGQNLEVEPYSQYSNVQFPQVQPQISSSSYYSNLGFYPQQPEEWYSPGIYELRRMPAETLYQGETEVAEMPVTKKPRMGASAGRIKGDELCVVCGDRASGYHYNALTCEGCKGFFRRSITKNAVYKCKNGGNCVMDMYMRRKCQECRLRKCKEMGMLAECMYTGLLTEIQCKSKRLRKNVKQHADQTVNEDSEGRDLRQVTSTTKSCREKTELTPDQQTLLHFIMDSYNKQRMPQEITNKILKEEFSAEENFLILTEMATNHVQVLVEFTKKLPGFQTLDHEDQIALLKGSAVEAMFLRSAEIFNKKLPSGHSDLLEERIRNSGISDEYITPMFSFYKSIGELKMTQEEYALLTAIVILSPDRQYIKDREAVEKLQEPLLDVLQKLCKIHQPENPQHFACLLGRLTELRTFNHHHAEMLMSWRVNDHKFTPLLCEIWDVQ
The settings on record: background statement; cited from earlier work.

Where [8] appears, read: male, human, plasma [14C]-OCA, 15 minute IV infusion of 100 μg [14C]-OCA, mean (SD), N = 5.
Setting [9] is: by 504 hours postdose, single oral 25 mg [14C]-OCA.
Setting [10] is: over the entire collection period.
The mark [11] stands for this setting: plasma, single oral dose 25 mg OCA tablet, mean (SD), N = 5.
Where [12] appears, read: plasma, single oral dose 25 mg OCA tablet, median and range, N = 5.
Setting [13] is: 25 mg oral dose of [14C]-OCA, N = 8.
[14] abbreviates: 25 mg oral dose of [14C]-OCA, median and range, N = 8.

The term clearance denotes the rate of elimination divided by the concentration. As for `CC[C@H]1[C@@H](O)C2C3CC[C@H]([C@H](C)CCC(=O)O)[C@@]3(C)CCC2[C@@]2(C)CC[C@@H](O)C[C@@H]12` (some centres unmarked) [[^14C]-OCA, [^14C]OCA], the “Vs (volume of distribution)” value in data set [1] (15 minute IV infusion of 100 μg [14C]-OCA, mean (SD), N = 5) is reported as 618 (341.9) L. Moreover, in data set [1] (male, human, plasma, 15 minute IV infusion of 100 μg [14C]-OCA, mean (SD), N = 5, read-out: CL (total plasma clearance) (converted)), the clearance is 417 mL/min. In addition, the Vd in data set [1] (male, human, plasma, 15 minute IV infusion of 100 μg [14C]-OCA, mean (SD), N = 5, read-out: Vss (volume of distribution at steady state)) stood at 210 L. In data set [1] (setting [8]), this compound registered an AUC0-t of 0.00386 µg·h/mL and a Cmax of 0.00971 µg/mL. Also, the “AUC0-t of [14C]-OCA as share of the total radioactive exposure” value in data set [1] (over 72 hours, IV 100 μg [14C]-OCA) is on record as “approximately 20%”. In addition, in data set [2] (at 1152 hours), the “total radioactivity administered recovered from feces, mean” value is reported as 87.0%. In data set [2] (setting [9]), the “radioactivity recovered from feces, average” value amounted to 72.3%; the “total radioactivity administered recovered from urine and feces, mean” value worked out at 75.1%. Moreover, in data set [2] (setting [10]), the “administered radioactivity recovered from the feces, mean” value worked out at 87% and the “administered radioactivity recovered from the urine” value is given as under 3%. Moreover, the “total radioactivity recovered from the urine, average” value in data set [2] (single oral 25 mg [14C]-OCA) was determined as 2.83%. Further, the “route of excretion of radioactivity” value in data set [3] is “excreted mainly in the feces”.

`CC[C@H]1[C@@H](O)[C@@H]2[C@H](CC[C@]3(C)[C@@H]([C@H](C)CCC(=O)NCC(=O)O)CC[C@@H]23)[C@@]2(C)CC[C@@H](O)C[C@@H]12` [Glyco-OCA]: the AUC0-t in data set [4] (setting [11]) is given as 1540 (480.7) hours*ng/mL; in data set [5] (setting [13]) it was 4690 (2232) ^ hours*ng/mL. Also, the Cmax in data set [4] (setting [11]) was 57.4 (24.43) ng/mL; in data set [5] (setting [13]), 73.8 (39.96) ng/mL. The tmax in data set [4] (setting [12]) is on record as 8.000 (2.00, 36.00) h; in data set [5] (setting [14]) it was 10.0 (3.00, 36.0) h. In addition, the “pharmacological action compared with parent drug (OCA)” value in data set [6] is “equipotent”.

A word on the bioavailability: it is dose-corrected exposure relative to a reference, in per cent. On to `CC[C@H]1[C@@H](O)[C@@H]2[C@H](CC[C@]3(C)[C@@H]([C@H](C)CCC(=O)O)CC[C@@H]23)[C@@]2(C)CC[C@@H](O)C[C@@H]12` [OCA, 3α,7α-dihydroxy-6α-ethyl-5β-cholan-24-oic acid], for which the bioavailability in data set [4] (male, human, plasma, oral, 25 mg, ratio of dose normalized AUC oral 25 mg OCA / IV 100 μg [14C]-OCA, mean (SD), N = 5, read-out: F (absolute bioavailability)) is about 17%. Moreover, the tmax was 30 min in data set [4] (male, human, plasma, oral 25 mg OCA, read-out: median tmax); 0.500 (0.50, 2.03) h in data set [4] (setting [12]); 75 min in data set [5] (male, human, 25 mg oral [14C]-OCA, read-out: median tmax); 1.25 (0.750, 2.50) h in data set [5] (setting [14]). Also, the AUC0-t in data set [4] (male, human, plasma, single oral dose 25 mg OCA tablet, mean (SD), N = 5, read-out: AUC0-t) was found to be 0.144 µg·h/mL; in data set [5] (male, human, 25 mg oral dose of [14C]-OCA, N = 8, read-out: AUC0-t) it was 0.475 µg·h/mL. For the same compound, the Cmax was found to be 0.0809 µg/mL in data set [4] (male, human, plasma, single oral dose 25 mg OCA tablet, mean (SD), N = 5, read-out: Cmax) and 0.0637 µg/mL in data set [5] (male, human, 25 mg oral dose of [14C]-OCA, N = 8, read-out: Cmax). Also, in data set [4] (on average, after the decline within 4 hours, up to 72 hours post-dose, oral 25 mg OCA), the “subsequent OCA plasma concentrations relative to Cmax” value is “less than 10%”. Further, the “contribution of parent to overall exposure of total OCA (AUC0-t)” value in data set [4] (oral 25 mg OCA) is “less than 10%”. For the same compound, the “FXR activity” value in data set [7] is on record as “highly potent FXR modulator”.

In the case of `CC[C@H]1[C@@H](O)[C@H]2C3CC[C@H]([C@H](C)CCC(=O)O[C@@H]4O[C@H](C(=O)O)[C@@H](O)[C@H](O)[C@H]4O)[C@@]3(C)CC[C@@H]2[C@@]2(C)CC[C@@H](O)C[C@@H]12` (some centres unmarked) [OCA-24 glucuronide], the “circulating OCA metabolites other than glyco-OCA and tauro-OCA” value in data set [5] is reported as “identified”.

As for `CC[C@H]1[C@@H](O)[C@@H]2[C@H](CC[C@]3(C)[C@@H]([C@H](C)CCC(=O)NCCS(=O)(=O)O)CC[C@@H]23)[C@@]2(C)CC[C@@H](O)C[C@@H]12` [Tauro-OCA], the AUC0-t was 624 (159.6) hours*ng/mL in data set [4] (setting [11]) and 2550 (2155) ^ hours*ng/mL in data set [5] (setting [13]). For the same compound, the Cmax was 23.1 (7.412) ^ ng/mL in data set [4] (setting [11]) and 24.4 (14.21) ng/mL in data set [5] (setting [13]). In addition, the tmax in data set [4] (setting [12]) is 36.000 (2.00, 60.00) h; in data set [5] (setting [14]), 9.03 (2.50, 36.0) h. Also, the “pharmacological action compared with parent drug (OCA)” value in data set [6] is reported as “equipotent”.

With `CC[C@H]1[C@@H](O)C2C3CC[C@H]([C@H](C)CCC(=O)O)[C@@]3(C)CCC2[C@@]2(C)CC[C@@H](O[C@@H]3O[C@H](C(=O)O)[C@@H](O)[C@H](O)[C@H]3O)C[C@@H]12` (some centres unmarked) [OCA-3 glucuronide, OCA-3-O-Glucuronide], the “circulating OCA metabolites other than glyco-OCA and tauro-OCA” value in data set [5] was “identified”.
